Laboratory results reported in publication PMC8861431, “Tissue Pharmacokinetic Properties and Bystander Potential of Hypoxia-Activated Prodrug CP-506 by Agent-Based Modelling” (Frontiers in Pharmacology, 2022).
Values joined by “and” are separate entries in the source; they are usually repeats but may differ in a detail not shown here. Equal values may be shown once.

Assays:
[1] = test system: HCT-116 cell line panel; experiment: Anti-proliferative IC50 assay of authentic CP-506 metabolites; format: cell-based, human; details: Homo sapiens, HCT-116, 120 h, read-out: Anti-proliferative IC50 of metabolite
Method: Cells (700–1,000 per well) were seeded with 100 µl culture medium into 96-well plates and left to attach for 2 h in a humidified 37°C incubator. Compounds were prepared in culture medium and serially diluted (1:3) in the well volume. […] Aerobic experiments were performed under standard tissue culture conditions (21% O2), and the anoxic experiments were performed in parallel in a 5% H2/Pd catalyst anaerobic chamber (Shellab Bactron, Sheldon manufacturing Inc., Cornelius, OR) using pre-equilibrated media and plasticware. All anoxia experiments were conducted using a catalyst-scrubbed anaerobic chamber, unless otherwise specified, with gas oxygen measurements of <1 ppm O2. Cells were then washed three times and left to grow for 96 h before cell density determination using a sulforhodamine B (SRB) assay ([Vichai and Kirtikara, 2006]). To this end, the cells were fixed by layering 50 µl of trichloroacetic acid (40% w/v in MilliQ water) on top of the culture media (150 µl) in each well for 1 h at 4°C. Plates were rinsed under running tap water and stained with 50 µl of SRB (0.4% w/v in MilliQ water containing 1% v/v acetic acid) for 30 min at room temperature. Plates were rapidly destained by rinsing three times in tap water containing 1% (v/v) acetic acid. The stain was solubilized by adding 100 µl of 10 mM unbuffered Tris base to each well with gentle rocking for 1 h. Plates were read on a Biotek ELx808 Absorbance Microplate Reader at 490 nm using KC4 software. The IC50 value (concentration required to reduce staining to 50% of the untreated control on the same plate) for each compound was determined by interpolation using a 4-parameter logistic regression model.
FIGURE 3 Hypoxia-dependent metabolism of CP-506 leads to the formation of a multitude of short-lived species with variable cytotoxicity. (A) Bioreductive metabolism of CP-506 under normoxic (21% O2) and anoxic conditions (<1 ppm O2). Concentrations of CP-506 and its metabolites (CP-506H, CP-506M and CP-506M-Cl2) were quantified by mass spectrometry with reference to the appropriate deuterated (D8) internal standard. Values are the mean ± SEM for three independent experiments. (B) Stability of CP-506 metabolites in culture medium (without cells) at 37°C. Concentrations were determined by mass spectrometry using standard curves generated from authenticated stocks. […] IC50 values are the mean ± SEM of duplicate wells for three independent experiments. T-tests were performed using GraphPad Prism 8 (ns, p-value > 0.05; *, p-value ≤ 0.05; **, p-value ≤ 0.01; ***, p-value ≤ 0.001).

[2] = test system: PORko-G and POR-R spheroids / spheroid co-cultures; experiment: Spheroid clonogenic survival assay (with spheroid ABM fit); format: cell-based, human; details: for k d S: kill probability rate constant in spheroid cultures: fitted by spheroid ABM to clonogenic survival under anoxia, set to zero for the prodrug, same kd assumed for metabolites
Method: Spheroid cultures were established by seeding 3 x 10^3 cells with 100 µl medium into ultra-low attachment, round bottom 96-well plates (Corning Inc, Corning, NY). Plates were briefly centrifuged (200 g, 5 min) to facilitate cell aggregation and grown in a standard incubator (37°C, 21% O2, 5% CO2) for 4 days before experiments. The culture medium was then aspirated, and the established spheroids taken into a H2/Pd-catalyst anaerobic chamber. Spheroids were washed three times with anoxia pre-equilibrated medium and left to settle for 1 h in a humidified 37°C incubator. Spheroids were removed from the anaerobic chamber after a 4 h drug exposure and washed three times with fresh culture medium. The growth of representative spheroids was monitored for 10 days using a published method of image analysis for volume determination ([Mao et al., 2018]). The remainder were enzymatically dissociated and plated at serial dilutions in 6-well plates containing 2 µM puromycin or 1 mg/ml geneticin for positive selection of POR-R and PORko-G cells, respectively. Colonies were visualized after 10 days of drug-free proliferation by staining with methylene blue (2 g/L in 50% aqueous ethanol) for 30 min. The number of colonies with at least 50 cells was manually counted to determine the plating efficiency. The surviving fraction was determined as the ratio of the plating efficiency of treated cells to that of the controls.
The spheroid ABM is described in further detail elsewhere ([Hong et al., 2018b]; [Mao et al., 2018]). The model employs two 3D grids and two solvers, a coarse grid represents the culture medium and is embedded with a much finer grid that represents the spheroid in a small cubic region at the bottom of the well. The spheroid grows in a specified volume and depth of unstirred medium containing dissolved oxygen. The geometry of the model is lattice-based, in which cells occupy cubic sites on a regular 3D lattice and grow in volume at a rate dependent on the local oxygen concentration. Autonomous cell mobility and cell-cell forces are not simulated. Cell motion occurs only as a result of cell division. Cells divide when the volume reaches a pre-set value (Vdiv) and the resultant daughter cell occupies an adjacent empty lattice site. […] The oxygen concentration at the air-medium boundary is defined by the gas phase of the culture environment. […] When oxygen concentrations fall below a critical level (<0.15 µM), cells are tagged to die and cytolysis occurs after a further 24 h leading to the central necrosis observed in in vitro spheroids. Spheroid ABM simulations were performed on a desktop Windows PC (Intel core I7 processor) from a Qt (Qt Company, https://www.qt.io/) graphical user interface passing parameters to a DLL built with Fortran95. The solution of the coarser grid provides the boundary conditions for the solution of the intracellular and extracellular concentrations within the spheroid lattice. Oxygen and drug are transported by diffusion from the boundary into the spheroid interior through the intercellular space in parallel with their uptake into cells. The model allows specification of two mass transfer constants to characterise the uptake (Kin) and efflux (Kout) rates for each compound. Prodrug metabolism is restricted to the intracellular compartment and dependent on the local oxygen concentration. […]

Row | SMILES | IC50 [1] [µM] | k d S: kill probability rate constant in spheroid cultures [2] | Differential in anoxic sensitivity between PORko-G and POR-R spheroids ([2]; clonogenic endpoint, 4 h exposure, anoxia)
1 | CCN1CCN(C(=O)c2cc(N(CCBr)CCOS(C)(=O)=O)c(S(C)(=O)=O)cc2N)CC1 [CP-506M, 2-((4-amino-5-(4-ethylpiperazine-1-carbonyl)-2-(methylsulfonyl)phenyl)(2-bromoethyl)amino)ethyl methanesulfonate] | < 10 | 0.0256 | –
2 | CCN1CCN(C(=O)c2cc(N(CCBr)CCOS(C)(=O)=O)c(S(C)(=O)=O)cc2NO)CC1 [CP-506H, 2-((2-bromoethyl)(5-(4-ethylpiperazine-1-carbonyl)-4-(hydroxyamino)-2-(methylsulfonyl)phenyl)amino)ethyl methanesulfonate] | < 10 | 0.0256 | –
3 | CCN1CCN(C(=O)c2cc(N(CCBr)CCOS(C)(=O)=O)c(S(C)(=O)=O)cc2[N+](=O)[O-])CC1 [CP-506, 2-[(2-bromoethyl)-5-[(4-ethyl-1-piperazinyl)carbonyl]-2-(methylsulfonyl)-4-nitroanilino]ethyl methanesulfonate] | – | 0 | 22 fold and 20 fold
4 | CCN1CCN(C(=O)c2cc(N(CCCl)CCCl)c(S(C)(=O)=O)cc2N)CC1 [CP-506M-Cl2, (2-Amino-5-(bis(2-chloroethyl)amino)-4-(methylsulfonyl)phenyl)(4-ethylpiperazin-1-yl)methanone] | < 10 | 0.0256 | –
